Among the data in ChEMBL document CHEMBL4270569, “Crystal structure of the Eg5 - K858 complex and implications for structure-based design of thiadiazole-containing inhibitors” (Eur J Med Chem, 2018) are IC50 and Kd values, retold here.

In assay [1] the target is T1, Kinesin-like protein KIF11 (Homo sapiens, UniProt P52732).
T1 sequence (P52732 whole entry): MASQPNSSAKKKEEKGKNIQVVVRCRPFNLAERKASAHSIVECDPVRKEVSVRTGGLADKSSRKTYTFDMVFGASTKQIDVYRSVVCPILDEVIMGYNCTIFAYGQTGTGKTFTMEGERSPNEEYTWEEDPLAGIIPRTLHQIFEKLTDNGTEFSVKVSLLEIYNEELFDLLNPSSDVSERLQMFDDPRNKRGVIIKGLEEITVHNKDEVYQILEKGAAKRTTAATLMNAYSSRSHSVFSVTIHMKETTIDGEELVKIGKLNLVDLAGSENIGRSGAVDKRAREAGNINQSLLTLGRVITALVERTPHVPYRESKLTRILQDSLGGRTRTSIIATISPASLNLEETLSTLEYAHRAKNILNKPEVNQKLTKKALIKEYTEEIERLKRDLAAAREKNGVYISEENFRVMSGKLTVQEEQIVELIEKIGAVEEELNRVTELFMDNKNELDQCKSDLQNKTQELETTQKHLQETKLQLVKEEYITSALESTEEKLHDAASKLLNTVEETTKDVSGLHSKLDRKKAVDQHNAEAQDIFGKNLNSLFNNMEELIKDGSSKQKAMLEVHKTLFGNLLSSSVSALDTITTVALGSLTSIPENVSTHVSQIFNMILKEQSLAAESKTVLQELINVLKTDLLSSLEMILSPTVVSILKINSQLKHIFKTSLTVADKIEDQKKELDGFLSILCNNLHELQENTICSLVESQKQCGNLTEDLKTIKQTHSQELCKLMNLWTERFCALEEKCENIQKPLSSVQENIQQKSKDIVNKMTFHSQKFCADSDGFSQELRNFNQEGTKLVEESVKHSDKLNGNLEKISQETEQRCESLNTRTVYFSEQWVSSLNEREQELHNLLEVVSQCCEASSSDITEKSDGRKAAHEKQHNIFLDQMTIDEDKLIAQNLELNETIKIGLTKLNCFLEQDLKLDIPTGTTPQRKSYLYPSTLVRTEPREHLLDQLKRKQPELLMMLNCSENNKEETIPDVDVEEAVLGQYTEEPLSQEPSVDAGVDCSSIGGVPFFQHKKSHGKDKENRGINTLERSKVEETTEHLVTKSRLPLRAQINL
Nature of the assay: Inhibition of basal ATPase activity of N-terminal His6-tagged human Eg5 motor domain (1 to 368 residues) expressed in Escherichia coli BL21 (DE3) by pyruvate kinase-lactate dehydrogenase coupled assay.

In assay [2] the target is T1, Kinesin-like protein KIF11. The experiment in a line: Inhibition of N-terminal His6-tagged microtubule-stimulated ATPase activity of human Eg5 motor domain (1 to 368 residues) expressed in Escherichia coli BL21 (DE3) by pyruvate kinase-lactate dehydrogenase coupled assay.
The target in assay [3] is T1, Kinesin-like protein KIF11. Nature of the assay: Binding affinity to N-terminal His6-tagged human Eg5 motor domain (1 to 368 residues) expressed in Escherichia coli BL21 (DE3) by isothermal titration calorimetry method.
Assay [4] addresses T1, Kinesin-like protein KIF11. Nature of the assay: Inhibition of microtubule-stimulated human Eg5 ATPase activity.

For the molecule `CC(=O)NC1=NN(C(C)=O)C(C)(c2cccs2)S1` (centres undefined), the half-inhibitory concentration (IC50) in assay [1] is 1700 nM.
Same read-out and setting: to `CC(=O)NC1=NN(C(C)=O)C(C)(c2cccnc2)S1` (centres undefined) belongs 8500 nM.
The same measure, in the same setting: to `CC(=O)NC1=NN(C(C)=O)C(C)(c2ccc(Cl)s2)S1` (centres undefined) belongs 950 nM.
Regarding `CC(=O)NC1=NN(C(C)=O)C(C)(c2ccccc2)S1` (centres undefined), the IC50 in assay [2] and in assay [1] was 740 nM in each case. Further, the affinity in assay [3], expressed as Kd, was 665 nM.
As for `CC(=O)NC1=NN(C(C)=O)C(C)(c2ccco2)S1` (centres undefined), the IC50 in assay [1] is 4300 nM.
The same measure, in the same setting: as for `CC(=O)NC1=NN(C(C)=O)C(C)(c2ccc3ccccc3c2)S1` (centres undefined), the figure is 15600 nM; as for `CC(=O)NC1=NN(C(C)=O)C(C)(c2ccccn2)S1` (centres undefined), 37200 nM; as for `CC(=O)NC1=NN(C(C)=O)C(c2ccccc2)S1` (centres undefined), 20000 nM.
Regarding `CCC1(c2ccccc2)SC(NC(C)=O)=NN1C(C)=O` (centres undefined), the half-maximal inhibitory concentration (IC50) in assay [1] was found to be 1460 nM.
On to `CC(=O)NC1=NN(C(C)=O)C(C)(c2ccc(OC(C)=O)cc2)S1` (centres undefined), for which half-maximal inhibition in assay [1] (IC50) was put at 5100 nM.
Same read-out and setting: as for `CC(=O)NC1=NN(C(C)=O)C(C)(c2cc(F)ccc2F)S1` (centres undefined), the figure is 840 nM; as for `CC(=O)NC1=NN(C(C)=O)C(c2cc(F)ccc2F)S1` (centres undefined), 41100 nM; as for `CC(=O)NC1=NN(C(C)=O)C(C)(c2cccc3ccccc23)S1` (centres undefined), 1900 nM.
Consider `CC(=O)NC1=NN(C(C)=O)[C@](C)(c2ccccc2)S1`, for which the IC50 worked out at 493 nM in assay [2] and 580 nM in assay [1]. The molecule further gave a dissociation constant Kd in assay [3] of 220 nM.
Molecule `CC(=O)NC1=NN(C(C)=O)C(C)(c2cnccn2)S1` (centres undefined) came in with an IC50 in assay [1] of 46900 nM.
In turn, `CC(=O)NC1=NN(C(C)=O)C(C)(c2ccsc2)S1` (centres undefined) displayed a concentration for half-maximal inhibition (IC50) in assay [1] of 2200 nM.
Same read-out and setting: to `CC(=O)NC1=NN(C(C)=O)C(C)(C2CCCCC2)S1` (centres undefined) belongs 7500 nM; to `CC(=O)NC1=NN(C(C)=O)C(c2cccc3ccccc23)S1` (centres undefined), 53900 nM; to `CC(=O)NC1=NN(C(C)=O)C(C)(c2ccncc2)S1` (centres undefined), 59900 nM.
`CCNCCS(=O)(=O)NC[C@@]1(c2ccccc2)SC(NC(=O)C(C)(C)C)=NN1C(=O)C(C)(C)C` [LITRONESIB] displayed an IC50 in assay [4] of 26 nM.
